Laboratory results reported in PubChem BioAssay (NCI).
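These data come from cells grown in 96-well plates and exposed to compound for 48 hours at five concentrations. TGI: concentration producing complete growth inhibition.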

How the values were obtained:
Assay in all cases: NCI tumour cell line growth inhibition, 48 h
SF-295 CNS = tested on: SF-295 CNS
A549 NSCLC = tested on: A549 NSCLC
SN12C renal = tested on: SN12C renal
KM20L2 colon = tested on: KM20L2 colon
SK-MEL-5 melanoma = tested on: SK-MEL-5 melanoma
KM12 colon = tested on: KM12 colon
EKVX NSCLC = tested on: EKVX NSCLC
LXFL 529 NSCLC = tested on: LXFL 529 NSCLC
HOP-62 NSCLC = tested on: HOP-62 NSCLC
HL-60(TB) leukemia = tested on: HL-60(TB) leukemia
DMS 114 small cell lung = tested on: DMS 114 small cell lung
DMS 273 small cell lung = tested on: DMS 273 small cell lung
M19-MEL melanoma = tested on: M19-MEL melanoma
SF-539 CNS = tested on: SF-539 CNS
MALME-3M melanoma = tested on: MALME-3M melanoma
RPMI-8226 leukemia = tested on: RPMI-8226 leukemia
SK-MEL-28 melanoma = tested on: SK-MEL-28 melanoma
HCC-2998 colon = tested on: HCC-2998 colon
IGROV1 ovarian = tested on: IGROV1 ovarian
UO-31 renal = tested on: UO-31 renal
COLO 205 colon = tested on: COLO 205 colon
SNB-19 CNS = tested on: SNB-19 CNS
SK-MEL-2 melanoma = tested on: SK-MEL-2 melanoma
DLD-1 colon = tested on: DLD-1 colon
K-562 leukemia = tested on: K-562 leukemia
UACC-257 melanoma = tested on: UACC-257 melanoma
SNB-75 CNS = tested on: SNB-75 CNS
SNB-78 CNS = tested on: SNB-78 CNS
LOX IMVI melanoma = tested on: LOX IMVI melanoma
M14 melanoma = tested on: M14 melanoma
SK-OV-3 ovarian = tested on: SK-OV-3 ovarian
XF 498 CNS = tested on: XF 498 CNS
786-0 renal = tested on: 786-0 renal
TK-10 renal = tested on: TK-10 renal
U251 CNS = tested on: U251 CNS
NCI-H522 lung = tested on: NCI-H522 lung
HCT-15 colon = tested on: HCT-15 colon
OVCAR-3 ovarian = tested on: OVCAR-3 ovarian
HT29 colon = tested on: HT29 colon
A498 renal = tested on: A498 renal
HOP-18 NSCLC = tested on: HOP-18 NSCLC
OVCAR-5 ovarian = tested on: OVCAR-5 ovarian
SF-268 CNS = tested on: SF-268 CNS
NCI-H23 lung = tested on: NCI-H23 lung
MOLT-4 leukemia = tested on: MOLT-4 leukemia
RXF 393 renal = tested on: RXF 393 renal
NCI-H226 lung = tested on: NCI-H226 lung
ACHN renal = tested on: ACHN renal
CCRF-CEM leukemia = tested on: CCRF-CEM leukemia
HOP-92 NSCLC = tested on: HOP-92 NSCLC
HCT-116 colon = tested on: HCT-116 colon
UACC-62 melanoma = tested on: UACC-62 melanoma
SW-620 colon = tested on: SW-620 colon
SR leukemia = tested on: SR leukemia

Measured: TGI

CCOC(=O)N1CCc2cc(OC)c(OC)cc2/C1=C/c1ccc(OC)c(OC)c1
98 µM: XF 498 CNS
65.1 µM: HL-60(TB) leukemia
98.4 µM: HT29 colon
44.4 µM: SK-MEL-5 melanoma
67.6 µM: MALME-3M melanoma
56.5 µM: RPMI-8226 leukemia
> 100 µM: all other assays above
